Reference: patent US20190054109A1, “An antiviral composition and a method for application thereof” (ALLA CHEM, LLC, priority 2017, published 2019)
Like-named read-outs stand apart in the source and are kept apart here. Marks after values point to notes of the source that are not given here.

Tests used:
[1] = from Sofia et al. J. Med. Chem. 2010, cited from earlier work
[2] = tested on: six HCV genotypes (gT1-gT6); details: cited from earlier work
gT1b NS5B HCV = details: cited from earlier work; for EC50: from hcvdruginfo.ca
[3] = from Sofia et al. J. Med. Chem. 2010, cited from earlier work; remark: listed apart in the source
[4] = tested on: Huh7 human hepatocellular carcinoma cell line; details: cited from earlier work
[5] = from Sofia et al. J. Med. Chem. 2010, cited from earlier work; remark: listed apart in the source
physchem = details: simulated gi fluid
Experimental: (§1) Evaluation of stability in biological matrix for compositions comprising the prodrug of formula 1.1. Initial compositions comprising the prodrug of formula 1.1 (the tested compounds) were prepared with a concentration of 10 mM in DMSO. From said compositions, 100-fold working solutions were prepared with a concentration of 100 μM in a mixture of acetonitrile: water with a volumetric ratio of 1:1.
The tested composition comprising the prodrug of formula 1.1 in a final concentration of 1 μM was incubated in artificial gastric juice (0.2% NaCl in 0.7% v/v HCl) and artificial intestinal juice (0.05M KH2PO4, pH 6.75). The incubation was performed in a Vortemp56 shaking incubator at 37° C. with stirring at a rate of 300 rev/min. […] The samples were then centrifuged, and the supernatant (150 μl) was sampled for analysis […]. The incubation was performed in two replicates, with each sample measured twice.
Samples were analyzed using an HPLC-MS/MS technique developed for each tested prodrug, wherein the chromatographic system 1290 Infinity II (Agilent Technologies) was combined with the tandem mass spectrometer QTRAP5500 (AB Sciex). When developing conditions for mass-spectrometric detection, the solutions of tested compounds in a mixture of acetonitrile-water (1:1) with a concentration of 100 ng/ml were injected directly into the mass spectrometer using a syringe pump with electrospray ionization carried out in a positive ion mode. Scanning in a total ion current mode (MS1) allowed us to identify a molecular ion for each compound, and basic product ions were recorded in MS2 mode. Then, to attain maximum sensitivity, the MS/MS technique was optimized in MRM mode. In quantitative chromatogram processing, the most intensive MRM transition was used for the analyte and the internal standard. Separation was carried out by means of linear gradient elution chromatography on a YMC Triart C18 column (50×2 mm, 1.9 μm) in a mobile phase consisting of 0.1% formic acid in water and 0.1% formic acid in acetonitrile. Tolbutamide (Fluka) was used as the internal standard.
Half-life (T1/2) was found from the kinetics of tested prodrug elimination in an antiviral composition during incubation in a biological matrix. The computations were based on the values of chromatographic peak areas for compounds in test samples normalized to the internal standard signal. From linear dependence of log normalized areas of chromatographic peaks on time, the constant of elimination rate was calculated (k is linear section slope).

in vitro = details: human, plasma
Experimental: as §1
The incubation was performed in a Vortemp56 shaking incubator at 37° C. with stirring at a rate of 300 rev/min. […] The samples were then centrifuged, and the supernatant (150 μl) was sampled for analysis […]. The incubation was performed in two replicates, with each sample measured twice.
Samples were analyzed using an HPLC-MS/MS technique developed for each tested prodrug, wherein the chromatographic system 1290 Infinity II (Agilent Technologies) was combined with the tandem mass spectrometer QTRAP5500 (AB Sciex). […] Scanning in a total ion current mode (MS1) allowed us to identify a molecular ion for each compound, and basic product ions were recorded in MS2 mode. […] In quantitative chromatogram processing, the most intensive MRM transition was used for the analyte and the internal standard. […]

SMILES	T1/2 SIF [1] [h]	T1/2 SIF ([1]; listed as Sovaldi ®)	efficiency in clinical trials [2]	EC90 (gT1b NS5B HCV; HCV genotype 1b (gT1b)) [nM]	EC50 (gT1b NS5B HCV; HCV genotype 1b (gT1b)) [nM]	EC90 (gT1b NS5B HCV; gT1b HCV, 10% FBS, from Sofia et al. J. Med. Chem. 2010) [nM]	EC50 (gT1b NS5B HCV; gT1b HCV, 10% FBS) [nM]	T1/2 SGF [3] [h]	T1/2 SGF ([3]; listed as Sovaldi ®)	CC90 ([4]; 10% FBS, from Sofia et al. J. Med. Chem. 2010) [µM]	CC50 ([4]; Huh7, Table 2 marks the value as from Sofia et al.) [µM]	T1/2 Human plasma [5] [h]	T1/2 Human plasma ([5]; listed as Sovaldi ®)	half-life at 1 μM (physchem; T1/2 SGF, artificial gastric juice, 37° C.) [min]	half-life at 1 μM (physchem; pH 6.75) [min]	half-life at 1 μM (in vitro) [min]
CC(C)OC(=O)[C@H](C)N[P@](=O)(OC[C@H]1O[C@@H](n2ccc(=O)[nH]c2=O)[C@](C)(F)[C@@H]1O)Oc1ccccc1 [Sovaldi®, Sofosbuvir]	> 24	>24* h	high efficiency	590	45 to 170	520	45 to 170	12.7 to 15	22.0* h	> 100	> 100	> 24	>24* h	–	–	–
C[C@H](N[P@@](=O)(OC[C@H]1O[C@@H](n2ccc(=O)[nH]c2=O)[C@](C)(F)[C@@H]1O)Oc1ccccc1)C(=O)OC1CCC1 [Prodrug 1.2, cyclobutyl (S)-2-((R)-(((2R,3R,4R,5R)-5-(2,4-dioxo-3,4-dihydropyrimidin-1(2H)-yl)-3-hydroxy-4-methyl-4-fluoro-tetrahydrofuran-2-yl)methoxy)-(phenoxy)-phosphorylamino)-propanoate]	–	–	–	–	–	–	–	–	–	–	–	–	–	762 to 900	> 1440	> 1440
